Test results taken from US20250213603A1, “PHARMACEUTICAL COMPOSITION FOR TREATING CANCER” (SAGA UNIVERSITY, priority 2021, published 2025).

Legend:
[1] = tested on: BV173; experiment: Apoptosis, Annexin V/propidium iodide staining; type: cell-based; conditions: BV173, 0.5, 1 and 1.5 mM, 48 hours (FIG. 5)
Procedure: (§1) The apoptosis of cells exposed to FA-HP-β-CyD was evaluated using Annexin V/propidium iodide (PI) staining as follows.
(§2) Leukemia cell lines (K562 and BV173) were used in this example. The FA-HP-β-CyD synthesized in Example 1 was used.
(§3) The apoptosis assay was performed by staining the cells with propidium iodide (PI) and Annexin V (BD Biosciences). The cells were cultured at a cell density of 4×10^5 cells/well on a 6-well plate and were incubated for 48 hours with FA-HP-β-CyD at different concentrations (0 mM (control: CT), 0.5 mM, 1 mM, and 1.5 mM). The cells were then stained with propidium iodide (PI) and Annexin V-APC (BD Biosciences) and analysis was performed using an FACSVerse flow cytometry system (BD Biosciences).

[2] = tested on: K562; experiment: Apoptosis, Annexin V/propidium iodide staining; type: cell-based; conditions: K562, 0.5, 1 and 1.5 mM, 48 hours (FIG. 5)
Procedure: as §1, §2, §3

[3] = tested on: BV173; experiment: Cell proliferation inhibitory action in the presence of folic acid (MTT assay); type: cell-based; conditions: BV173, 5 mM, FA 2 mM, 2 hours (FIG. 4)
Procedure: (§4) The cell proliferation inhibitory action on leukemia cell lines in the presence of folic acid (FA) was evaluated as follows using the MTT assay.
as §2
(§5) 2×10^4 of each cell with 100 μL of medium was seeded per well to a flatbottom 96-well plate (Greiner Labortechnik, Hamburg, Germany), and incubation for 2 hours at 37° C. was carried out in combination with medium containing HP-β-CyD (5 mM) and FA-HP-β-CyD (5 mM) in the presence or absence of FA (2 mM). Evaluation was then carried out using a Cell Counting Kit-8 (Dojindo, Japan), which is a modified dimethyl-thiazole-diphenyl-tetrazolium (MTT) assay.
(§6) The evaluation here was carried out as follows, respectively, for the “CT” and “only FA” in FIG. 4. Thus, 2×10^4 of each cell with 100 μL of medium was seeded per well to a flatbottom 96-well plate and incubation was carried out for 2 hours at 37° C.; this was evaluated as “CT”. Incubation for 2 hours at 37° C. while exposed to only FA was evaluated as “only FA”.
(§7) Significant difference was established as follows. A two sample t-test was performed on the agents under investigation (FA-HP-β-CyD with FA, FA-HP-β-CyD without FA). A significant difference is established when p<0.05 in the comparison of the two samples.

[4] = tested on: K562; experiment: as above; type: cell-based; conditions: K562, 5 mM, FA 2 mM, 2 hours (FIG. 4)
Procedure: as §4, §2, §5, §6, §7

[5] = tested on: A549; experiment: Proliferation inhibitory action on low folate receptor-expressing cells (MTT assay); type: cell-based, human; conditions: A549, 2.5-10 mM, 72 hours (FIG. 3)
Procedure: The proliferation inhibitory action on A549, a low folate receptor-expressing cell, was evaluated as follows.
A human non-small cell lung cancer cell line (A549) was used in this example. The FA-HP-β-CyD synthesized in Example 1 was used.
For cell proliferation, 2×10^4 cells of the […] were seeded with 100 μL DMEM medium (Sigma-Aldrich, USA) per well to a flatbottom 96-well plate (Greiner Labortechnik, Hamburg, Germany), and incubation for 72 hours was carried out with exposure to HP-β-CyD and FA-HP-β-CyD at different concentrations (0 mM (control: CT), 2.5 mM, 5 mM, 7.5 mM, and 10 mM). Evaluation was then carried out using a dimethyl-thiazole-diphenyl-tetrazolium (MTT) assay (Nacalai Tesque, Japan).

[6] = tested on: BV173; experiment: Induction of autophagosome formation (Cyto-ID Autophagy Detection Kit); type: cell-based; conditions: BV173, 1 mM or 5 mM, 2 hours (FIG. 7)
Procedure: (§8) The induction of autophagosome formation by FA-HP-β-CyD was evaluated as follows.
as §2
(§9) The cells were cultured at a cell density of 4×10^5 cells/well on a 6-well plate and were treated for 2 hours with 1 mM or 5 mM HP-β-CyD or FA-HP-β-CyD, and the cells were incubated. This was followed by use of a Cyto-ID (registered trademark) Autophagy Detection Kit (Enzo Life Sciences, USA) and the use of an Axio Imager.M2 fluorescence microscope+an ApoTome.2 (Zeiss) for cell observation.

[7] = tested on: K562; experiment: as above; type: cell-based; conditions: K562, 1 mM or 5 mM, 2 hours (FIG. 7)
Procedure: as §8, §2, §9

[8] = tested on: Ba/F3 P190; experiment: Cell proliferation inhibition, modified MTT assay (Cell Counting Kit-8); type: cell-based
Procedure: (§10) The proliferation inhibitory action in leukemia cell lines was evaluated using a modified dimethyl-thiazole-diphenyl-tetrazolium (MTT) assay as follows.
(§11) The hepatocyte line and leukemia cell lines (K562, BV173, Ba/F3 p190, Ba/F3 p210, MYL-R, K562-IMR, and KBM5-STI) were used in this example. The FA-HP-β-CyD synthesized in Example 1 was used.
(§12) The cell viability was evaluated using the trypan blue dye exclusion method. Cell proliferation was evaluated using a Cell Counting Kit-8 (Dojindo, Japan), which is an MTT assay. 2×10^4 of each cell was seeded with 100 μL RPMI1640 medium (Sigma-Aldrich, USA) per well to a flatbottom 96-well plate (Greiner Labortechnik, Hamburg, Germany), and incubation for 72 hours was carried out with exposure to HP-β-CyD and FA-HP-β-CyD at different concentrations (0 mM (control: CT), 0.05 mM, 0.1 mM, 0.25 mM, 0.5 mM, and 1 mM).

[9] = tested on: K562-IMR; experiment: as above; type: cell-based; conditions: incubation for 72 hours, average±SD of 3 independent experiments
Procedure: as §10, §11, §12

[10] = tested on: BV173; experiment: as above; type: cell-based
Procedure: as §10, §11, §12

[11] = tested on: MYL-R; experiment: as above; type: cell-based; conditions: incubation for 72 hours, average±SD of 3 independent experiments
Procedure: as §10, §11, §12

[12] = tested on: Ba/F3 P210; experiment: as above; type: cell-based; conditions: Ba/F3 P210, incubation for 72 hours, average±SD of 3 independent experiments
Procedure: as §10, §11, §12

[13] = tested on: hepatocyte; experiment: as above; type: cell-based; conditions: hepatocyte line, incubation for 72 hours, average±SD of 3 independent experiments
Procedure: as §10, §11, §12

[14] = tested on: KBM5-STI; experiment: as above; type: cell-based; conditions: incubation for 72 hours, average±SD of 3 independent experiments
Procedure: as §10, §11, §12

[15] = tested on: K562; experiment: as above; type: cell-based
Procedure: as §10, §11, §12

folic acid-appended hydroxypropyl-β-cyclodextrin [FA-HP-β-CyD]
apoptosis induction [1]: induce apoptosis in a concentration dependent manner
apoptosis induction [2]: induce apoptosis in a concentration dependent manner
antitumor activity in the presence of FA compared to without FA [3]: significantly reduced
antitumor activity in the presence of FA compared to without FA [4]: significantly reduced
cytotoxic / antitumor activity on A549 low folate receptor-expressing cells [5]: does not exhibit an antitumor activity
autophagosome membrane protein LC3B [6]: increase in a concentration dependent manner
autophagosome membrane protein LC3B [7]: increase in a concentration dependent manner
IC50 ([8]; Ba/F3 P190, incubation for 72 hours, average±SD of 3 independent experiments): 910 ± 160 µM
cell proliferation ([8]; Ba/F3 p190, 0.05-1 mM, 72 hours (FIG. 2)): inhibited in a dose-dependent manner
IC50 [9]: 700 ± 55 µM
cell proliferation ([10]; BV173, 0.05-1 mM, 72 hours (FIG. 2)): inhibited in a dose-dependent manner
IC50 ([10]; BV173, incubation for 72 hours, average±SD of 3 independent experiments): 170 ± 64 µM
IC50 [11]: 930 ± 110 µM
IC50 [12]: 960 ± 17 µM
IC50 [13]: 20100 ± 4500 µM
IC50 [14]: 800 ± 120 µM
cell proliferation ([15]; K562, 0.05-1 mM, 72 hours (FIG. 2)): inhibited in a dose-dependent manner
IC50 ([15]; K562, incubation for 72 hours, average±SD of 3 independent experiments): 690 ± 190 µM
